Patent publication US20090227606A1, “Methods for Preventing or Treating Acute and Chronic Pain” (priority 2006, published 2009)
Entries after “also recorded” stand apart in the source; their conditions may differ.

Legend:
GLT-1 [1] = assay: eGFP-GLT-1-positive puncta in mouse spinal cord dorsal horn; format: in vivo
Protocol: With these in vivo data collected, further experiments were performed in the transgenic mice to more clearly define the effects of propentofylline treatment on GLT-1 and GLAST in the spinal cord. As discussed above, following in vivo testing, mice were transcardially perfused and tissue was fixed with paraformaldehyde. Lumbar spinal cord sections were identified and post-fixed in paraformaldehyde. After one week in sucrose to prevent freeze fracture, spinal cord segments were frozen in dry ice, mounted and prepared with cryostat sectioning. Sections were then subjected to immunohistochemical analysis. […] In order to quantitate the relative number of eGFP (marker for GLT-1) or DsRed (marker for GLAST) puncta in each spinal cord dorsal horn, images using a fluorescence microscope were taken with a Q-Fire cooled camera (397 ms exposure). […] An observer blind to the treatment groups was used to count the relative number of GLT-1 or GLAST positive puncta in the ipsilateral (injured) dorsal horn versus the contralateral (non-injured) dorsal horn. […] For both reporters (GLT-1, green color; GLAST, red color), diffuse, cytoplasmic and punctate, perinuclear expression was observed that overlapped with GFAP (blue color) in some, but not all cases.
Transgenic mice on a C57B1/6 background were created according to the methods previously described (Regan et al. 2006. J. Neuroscience, in press). Briefly, in order to determine where in the central nervous system GLAST is expressed, transgenic mice were created using a bacterial artificial chromosome containing the GLAST gene plus 18 kb of DNA upstream of the first exon and 60 kb downstream of the last exon. DsRed cDNA was inserted into the first exon to allow expression of DsRed instead of GLAST when the promoter is active. […]
As described previously with rats, mice were transcardially perfused with 0.1 M PBS (phosphate-buffered saline), pH 7.4, followed by 4%-paraformaldehyde in PBS on day 12 post-L5 spinal nerve transection. […] The sections were examined with a fluorescence microscope, and images were captured with a Q-Fire cooled camera. […]

adenosine transport = details: literature; cited from earlier work
GLT-1 [2] = assay: Immunohistochemistry of rat lumbar spinal cord, GLT-1; format: in vivo; details: day 12 post-transection, ipsilateral vs contralateral
Protocol: (§1) For assessment of GFAP, GLT-1 and GLAST immunoreactivity, a separate group of rats (n=4/treatment) were anesthetized and transcardially perfused with 0.1 M PBS (phosphate-buffered saline), pH 7.4, followed by 4% paraformaldehyde in PBS on day 12 post-L5 spinal nerve transection. Lumbar spinal cord sections were identified, isolated, and processed as described previously (Colburn, R. W. et al. 1997. J. Neuroimmunol. 79:163-175). Free-floating, […] were cut in a cryostat and processed for immunofluorescence. Sections were blocked with 5% FBS/0.1% Triton-X 100 for 1 hour at room temperature (RT). For double immunofluorescence, spinal sections were incubated with a mixture of rabbit polyclonal anti-GLT-1 (1:500) or guinea pig anti-GLAST (1:5000, Chemicon, Temecula, Calif.), and mouse anti-GFAP G-A-5 (astrocyte marker, 1:400, Sigma Chemical Co., St. Louis, Mo.) in 3% FBS/0.1% triton-X 100/TBS over night at 4° C., washed, incubated in a mixture of goat anti-rabbit Alexa Fluor™-555 and goat anti-mouse Alexa Fluor™-488 (1:250, Molecular Probes, Eugene, Oreg.) secondary antibodies in 3% FBS/0.1% triton-X 100/TBS for 1 hour at RT. To control for nonspecific staining, control sections were incubated in the absence of primary antibodies. The sections were examined with a fluorescence microscope, and images were captured with a Q-Fire cooled camera. […]

cultured astrocytes = assay: Reversibility of astrocyte phenotype change after 7 day washout; format: cell-based, rat; details: 7 days treatment (high dose), then 7 day washout in control media
Protocol: In order to ensure that the morphological effects of propentofylline on astrocytes were due to specific pharmacological effects and not due to toxicity, experiments were performed to determine if the phenotype change observed was reversible.
After approximately 14 days (2 days after subplating into plates, DIV 14) astrocytes had formed a confluent monolayer. […] Phase contrast microscopy was then carried out in order to assess the morphology of cells after the various treatments.

GLAST = assay: Immunohistochemistry of rat lumbar spinal cord, GLAST; format: in vivo; details: day 12 post-transection, ipsilateral side
Protocol: as §1

[3] = system: L5 spinal nerve transection; details: systemically or intrathecally administered; Sweitzer et al. 2001; cited from earlier work
[4] = L5/propentofylline group, day 12

## CCCn1cnc2c1c(=O)n(CCCCC(C)=O)c(=O)n2C [propentofylline]
GLT-1 [1]; [4]
  eGFP-GLT-1-positive puncta in injured mice, in words: reversed with propentofylline administration; also recorded: restored levels of eGFP-GLT-1-positive puncta to that of the contralateral side
  ipsilateral versus contralateral ratio of eGFP-GLT-1-positive puncta: 1
GLT-1 [1]; sham/propentofylline group
  eGFP-GLT-1-positive puncta in sham mice: did not lead to further increases in GLT-1 above normal expression levels
Adenosine transport
  adenosine transport: inhibit adenosine transport
GLT-1 [2]
  GLT-1 immunoreactivity in dorsal horn: no qualitative difference in GLT-1 between ipsilateral and contralateral dorsal horns
Cultured astrocytes
  reversibility of morphological change: reversal was more complete in propentofylline-treated cells
GLAST
  GLAST immunoreactivity in dorsal horn: did not enhance GLAST immunoreactivity on the ipsilateral side
[3]
  mechanical allodynia induced by L5 spinal nerve transection: exhibits anti-allodynic properties; also recorded: attenuated mechanical allodynia
